Experimental data from US20260232812A1, “BIFUNCTIONAL MOLECULES FOR TARGETED PROTEIN DEGRADATION” (Amphista Therapeutics Limited, priority 2022, published 2026).

Target: T1, BRD4 (Homo sapiens, UniProt O60885)
T1 construct: HEK293 containing a HiBit insertion for BRD4; endogenous in cells; host or cells: HEK293 with a HiBiT insertion for BRD4
Experiment: Assay 1 - Degradation of HiBit-BRD4 in HEK293
Type: cell-based
Settings: HiBit-BRD4 in HEK293, 6 h treatment
Method: 1.1 Assay 1-Degradation of HiBit-BRD4 in HEK293
HEK293 containing a HiBit insertion for BRD4 were plated in 384-well tissue culture plates at a density of 8×10^4 per well in a volume of 36 μL and incubated overnight at 37° C. and 5% CO2. Wells were treated with test compounds for 6 h prior to addition of the NanoLuc substrate and reading on a […]. Degradation data was plotted and analysed using […] (Graphpad).

| Compound | DC50 [µM] | Dmax [%] |
| --- | --- | --- |
| CC(=O)N1c2ccc(-c3ccc(C(=O)NCCOCCOCCOCCOCCOCCNC(=O)C4CC(c5ccccc5)CN(C(=O)/C(C#N)=C/C(C)(C)C)C4)cc3)cc2[C@H](Nc2ccc(Cl)cc2)C[C@@H]1C (stereo partly drawn) [Example 13aa] | > 0.2 | ≥ 70 |
| CC(=O)N1c2ccc(-c3ccc(C(=O)NCCOCCOCCOCCOCCOCCNC(=O)C4CC(c5ccccc5)CN(C(=O)/C(C#N)=C/c5ccc(F)cc5)C4)cc3)cc2[C@H](Nc2ccc(Cl)cc2)C[C@@H]1C (stereo partly drawn) [Example 13ac] | 0.025 to 0.2 | ≥ 70 |
| COc1ccc(C2CC(C(=O)NCCOCCOCCOCCOCCOCCNC(=O)c3ccc(-c4ccc5c(c4)[C@H](Nc4ccc(Cl)cc4)C[C@H](C)N5C(C)=O)cc3)CN(C(=O)/C(C#N)=C/c3nccs3)C2)cc1 (stereo partly drawn) [Example 13ae] | 0.025 to 0.2 | ≥ 70 |
| COc1ccc(C2CC(C(=O)NCCOCCOCCOCCOCCOCCNC(=O)c3ccc(-c4ccc5c(c4)[C@H](Nc4ccc(Cl)cc4)C[C@H](C)N5C(C)=O)cc3)CN(C(=O)/C(C#N)=C/C(C)(C)C)C2)cc1 (stereo partly drawn) [Example 13af] | 0.025 to 0.2 | 50 to 70 |
| COc1ccc(C2CC(C(=O)NCCOCCOCCOCCOCCOCCNC(=O)c3ccc(-c4ccc5c(c4)[C@H](Nc4ccc(Cl)cc4)C[C@H](C)N5C(C)=O)cc3)CN(C(=O)/C(C#N)=C/c3ccn(C)n3)C2)cc1 (stereo partly drawn) [Example 13ag] | 0.025 to 0.2 | 50 to 70 |
| COc1ccc(C2CC(C(=O)NCCOCCOCCOCCOCCOCCNC(=O)c3ccc(-c4ccc5c(c4)[C@H](Nc4ccc(Cl)cc4)C[C@H](C)N5C(C)=O)cc3)CN(C(=O)/C(C#N)=C/c3ccc(F)cc3)C2)cc1 (stereo partly drawn) [Example 13ah] | 0.025 to 0.2 | ≥ 70 |
| COc1ccc(C2CC(C(=O)NCCOCCOCCOCCOCCOCCNC(=O)c3ccc(-c4ccc5c(c4)[C@H](Nc4ccc(Cl)cc4)C[C@H](C)N5C(C)=O)cc3)CN(C(=O)/C(C#N)=C/C(C)(C)CN3CCOCC3)C2)cc1 (stereo partly drawn) [Example 13ai] | > 0.2 | 30 to 50 |
| CC(=O)N1c2ccc(-c3ccc(C(=O)NCCOCCOCCOCCOCCOCCNC(=O)C4CC(c5ccc(C(F)(F)F)cc5)CN(C(=O)/C(C#N)=C/C(C)(C)CN5CCOCC5)C4)cc3)cc2[C@H](Nc2ccc(Cl)cc2)C[C@@H]1C (stereo partly drawn) [Example 13an] | 0.025 to 0.2 | 30 to 50 |
| CC(=O)N1c2ccc(-c3ccc(C(=O)NCCOCCOCCOCCOCCOCCNC(=O)C4CC(c5cccc(C)c5)CN(C(=O)/C(C#N)=C/C(C)(C)C)C4)cc3)cc2[C@H](Nc2ccc(Cl)cc2)C[C@@H]1C (stereo partly drawn) [Example 13au] | 0.025 to 0.2 | ≥ 70 |
| CC(=O)N1c2ccc(-c3ccc(C(=O)NCCOCCOCCOCCOCCOCCNC(=O)C4CC(c5cccc(C)c5)CN(C(=O)/C(C#N)=C/c5ccn(C)n5)C4)cc3)cc2[C@H](Nc2ccc(Cl)cc2)C[C@@H]1C (stereo partly drawn) [Example 13av] | > 0.2 | 50 to 70 |
| CC(=O)N1c2ccc(-c3ccc(C(=O)NCCOCCOCCOCCOCCOCCNC(=O)C4CC(c5cccc(C)c5)CN(C(=O)/C(C#N)=C/c5ccc(F)cc5)C4)cc3)cc2[C@H](Nc2ccc(Cl)cc2)C[C@@H]1C (stereo partly drawn) [Example 13aw] | > 0.2 | < 50 |
| CC(=O)N1c2ccc(-c3ccc(C(=O)NCCOCCOCCOCCOCCOCCNC(=O)C4CC(c5cccc(C)c5)CN(C(=O)/C(C#N)=C/C(C)(C)CN5CCOCC5)C4)cc3)cc2[C@H](Nc2ccc(Cl)cc2)C[C@@H]1C (stereo partly drawn) [Example 13ax] | < 0.025 | ≥ 70 |
| CC(=O)N1c2ccc(-c3ccc(C(=O)NCCOCCOCCOCCOCCOCCNC(=O)C4CCCN(C(=O)/C(C#N)=C/c5ccn(C)n5)C4)cc3)cc2[C@H](Nc2ccc(Cl)cc2)C[C@@H]1C (stereo partly drawn) [Example 13c] | 0.025 to 0.2 | < 50 |
| CC(=O)N1c2ccc(-c3ccc(C(=O)NCCOCCOCCOCCOCCOCCNC(=O)C4CCCN(C(=O)/C(C#N)=C/c5ccc(F)cc5)C4)cc3)cc2[C@H](Nc2ccc(Cl)cc2)C[C@@H]1C (stereo partly drawn) [Example 13d] | > 0.2 | 30 to 50 |
| CC(=O)N1c2ccc(-c3ccc(C(=O)NCCOCCOCCOCCOCCOCCNC(=O)C4CCCN(C(=O)/C(C#N)=C/C(C)(C)CN5CCOCC5)C4)cc3)cc2[C@H](Nc2ccc(Cl)cc2)C[C@@H]1C (stereo partly drawn) [Example 13e] | > 0.2 | 30 to 50 |
| CC(=O)N1c2ccc(-c3ccc(C(=O)NCCOCCOCCOCCOCCOCCNC(=O)C4CC(C)CN(C(=O)/C(C#N)=C/C(C)(C)C)C4)cc3)cc2[C@H](Nc2ccc(Cl)cc2)C[C@@H]1C (stereo partly drawn) [Example 13g] | > 0.2 | 50 to 70 |
| CC(=O)N1c2ccc(-c3ccc(C(=O)NCCOCCOCCOCCOCCOCCNC(=O)C4CC(C)CN(C(=O)/C(C#N)=C/c5ccc(F)cc5)C4)cc3)cc2[C@H](Nc2ccc(Cl)cc2)C[C@@H]1C (stereo partly drawn) [Example 13i] | > 0.2 | 30 to 50 |
| CC(=O)N1c2ccc(-c3ccc(C(=O)NCCOCCOCCOCCOCCOCCNC(=O)C4CC(C(C)C)CN(C(=O)/C(C#N)=C/C(C)(C)C)C4)cc3)cc2[C@H](Nc2ccc(Cl)cc2)C[C@@H]1C (stereo partly drawn) [Example 13l] | > 0.2 | 30 to 50 |
| CC(=O)N1c2ccc(-c3ccc(C(=O)NCCOCCOCCOCCOCCOCCNC(=O)C4CC(C(C)C)CN(C(=O)/C(C#N)=C/c5ccn(C)n5)C4)cc3)cc2[C@H](Nc2ccc(Cl)cc2)C[C@@H]1C (stereo partly drawn) [Example 13m] | 0.025 to 0.2 | 50 to 70 |
| CC(=O)N1c2ccc(-c3ccc(C(=O)NCCOCCOCCOCCOCCOCCNC(=O)C4CC(C5CCCCC5)CN(C(=O)/C(C#N)=C/c5ccn(C)n5)C4)cc3)cc2[C@H](Nc2ccc(Cl)cc2)C[C@@H]1C (stereo partly drawn) [Example 13r] | 0.025 to 0.2 | ≥ 70 |
| CC(=O)N1c2ccc(-c3ccc(C(=O)NCCOCCOCCOCCOCCOCCNC(=O)C4CC(C5CC5)CN(C(=O)/C(C#N)=C/c5nccs5)C4)cc3)cc2[C@H](Nc2ccc(Cl)cc2)C[C@@H]1C (stereo partly drawn) [Example 13u] | < 0.025 | ≥ 70 |
| CC(=O)N1c2ccc(-c3ccc(C(=O)NCCOCCOCCOCCOCCOCCNC(=O)CN4CCC(C5CCCN5C(=O)/C(C#N)=C/c5cscn5)CC4)cc3)cc2[C@H](Nc2ccc(Cl)cc2)C[C@@H]1C (stereo partly drawn) [Example 14a] | 0.025 to 0.2 | ≥ 70 |
| COc1ccc([C@@H]2CN(C(=O)/C(C#N)=C/C(C)(C)C)C[C@H]2C(=O)NCCOCCOCCOCCOCCOCCNC(=O)c2ccc(-c3ccc4c(c3)[C@H](Nc3ccc(Cl)cc3)C[C@H](C)N4C(C)=O)cc2)cc1 [Example 15aa] | 0.025 to 0.2 | ≥ 70 |

Now from value to compound:

| DC50 [µM] | Dmax [%] | Compound |
| --- | --- | --- |
| > 0.2 | 50 to 70 | CC(=O)N1c2ccc(-c3ccc(C(=O)NCCOCCOCCOCCOCCOCCNC(=O)C4CC(c5ccccc5)CN(C(=O)/C(C#N)=C/c5ccn(C)n5)C4)cc3)cc2[C@H](Nc2ccc(Cl)cc2)C[C@@H]1C (stereo partly drawn) [Example 13ab] |
| 0.025 to 0.2 | ≥ 70 | CC(=O)N1c2ccc(-c3ccc(C(=O)NCCOCCOCCOCCOCCOCCNC(=O)C4CC(c5ccc(C(F)(F)F)cc5)CN(C(=O)/C(C#N)=C/C(C)(C)C)C4)cc3)cc2[C@H](Nc2ccc(Cl)cc2)C[C@@H]1C (stereo partly drawn) [Example 13ak] |
| 0.025 to 0.2 | ≥ 70 | CC(=O)N1c2ccc(-c3ccc(C(=O)NCCOCCOCCOCCOCCOCCNC(=O)C4CC(c5cccc(C)c5)CN(C(=O)/C(C#N)=C/c5nccs5)C4)cc3)cc2[C@H](Nc2ccc(Cl)cc2)C[C@@H]1C (stereo partly drawn) [Example 13at] |
| 0.025 to 0.2 | ≥ 70 | CC(=O)N1c2ccc(-c3ccc(C(=O)NCCOCCOCCOCCOCCOCCNC(=O)C4CCCN(C(=O)/C(C#N)=C/C(C)(C)C)C4)cc3)cc2[C@H](Nc2ccc(Cl)cc2)C[C@@H]1C (stereo partly drawn) [Example 13b] |
| < 0.025 | ≥ 70 | CC(=O)N1c2ccc(-c3ccc(C(=O)NCCOCCOCCOCCOCCOCCNC(=O)C4CC(C(C)C)CN(C(=O)/C(C#N)=C/c5nccs5)C4)cc3)cc2[C@H](Nc2ccc(Cl)cc2)C[C@@H]1C (stereo partly drawn) [Example 13k] |
| > 0.2 | 50 to 70 | CC(=O)N1c2ccc(-c3ccc(C(=O)NCCOCCOCCOCCOCCOCCNC(=O)C4CC(C(C)C)CN(C(=O)/C(C#N)=C/c5ccc(F)cc5)C4)cc3)cc2[C@H](Nc2ccc(Cl)cc2)C[C@@H]1C (stereo partly drawn) [Example 13n] |
| < 0.025 | ≥ 70 | CC(=O)N1c2ccc(-c3ccc(C(=O)NCCOCCOCCOCCOCCOCCNC(=O)C4CC(C5CCCCC5)CN(C(=O)/C(C#N)=C/c5nccs5)C4)cc3)cc2[C@H](Nc2ccc(Cl)cc2)C[C@@H]1C (stereo partly drawn) [Example 13p] |
| 0.025 to 0.2 | 50 to 70 | CC(=O)N1c2ccc(-c3ccc(C(=O)NCCOCCOCCOCCOCCOCCNC(=O)C4CC(C5CCCCC5)CN(C(=O)/C(C#N)=C/C(C)(C)C)C4)cc3)cc2[C@H](Nc2ccc(Cl)cc2)C[C@@H]1C (stereo partly drawn) [Example 13q] |
| 0.025 to 0.2 | ≥ 70 | CC(=O)N1c2ccc(-c3ccc(C(=O)NCCOCCOCCOCCOCCOCCNC(=O)C4CC(C5CCCCC5)CN(C(=O)/C(C#N)=C/c5ccc(F)cc5)C4)cc3)cc2[C@H](Nc2ccc(Cl)cc2)C[C@@H]1C (stereo partly drawn) [Example 13s] |
| 0.025 to 0.2 | ≥ 70 | CC(=O)N1c2ccc(-c3ccc(C(=O)NCCOCCOCCOCCOCCOCCNC(=O)C4CC(C5CCCCC5)CN(C(=O)/C(C#N)=C/C(C)(C)CN5CCOCC5)C4)cc3)cc2[C@H](Nc2ccc(Cl)cc2)C[C@@H]1C (stereo partly drawn) [Example 13t] |
| 0.025 to 0.2 | ≥ 70 | CC(=O)N1c2ccc(-c3ccc(C(=O)NCCOCCOCCOCCOCCOCCNC(=O)C4CC(C5CC5)CN(C(=O)/C(C#N)=C/C(C)(C)C)C4)cc3)cc2[C@H](Nc2ccc(Cl)cc2)C[C@@H]1C (stereo partly drawn) [Example 13v] |
| 0.025 to 0.2 | ≥ 70 | CC(=O)N1c2ccc(-c3ccc(C(=O)NCCOCCOCCOCCOCCOCCNC(=O)C4CC(C5CC5)CN(C(=O)/C(C#N)=C/c5ccc(F)cc5)C4)cc3)cc2[C@H](Nc2ccc(Cl)cc2)C[C@@H]1C (stereo partly drawn) [Example 13x] |
| < 0.025 | ≥ 70 | CC(=O)N1c2ccc(-c3ccc(C(=O)NCCOCCOCCOCCOCCOCCNC(=O)C4CC(c5ccccc5)CN(C(=O)/C(C#N)=C/c5nccs5)C4)cc3)cc2[C@H](Nc2ccc(Cl)cc2)C[C@@H]1C (stereo partly drawn) [Example 13z] |
